In patent US8465724B2, “Multi-drug ligand conjugates” (Endocyte, Inc., priority 2005, dated 2013):
Entries after “also recorded” stand apart in the source; their conditions may differ.

What was measured:
[1] = target: T1, folate receptors (FRs) on KB cells (Homo sapiens, UniProt P15328); assay: Relative affinity assay (displacement of 3H-folic acid); format: binding; settings: relative to folic acid, set to 1, 100 nM 3H-folic acid
T1 construct: FR-positive KB cells were heavily seeded into 24-well cell culture plates; endogenous in cells; host or cells: KB cells
T1 sequence (P15328 25-234): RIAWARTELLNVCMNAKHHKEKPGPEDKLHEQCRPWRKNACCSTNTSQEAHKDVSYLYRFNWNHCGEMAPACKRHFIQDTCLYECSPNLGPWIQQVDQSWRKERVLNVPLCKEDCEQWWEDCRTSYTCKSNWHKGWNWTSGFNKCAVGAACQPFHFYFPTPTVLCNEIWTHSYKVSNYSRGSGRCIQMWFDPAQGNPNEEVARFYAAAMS
Protocol: The affinity for folate receptors (FRs) relative to folate was determined according to a previously described method (Westerhof, G. R., J. H. Schomagel, et al. (1995) Mol. Pharm. 48: 459-471) with slight modification. Briefly, FR-positive KB cells were heavily seeded into 24-well cell culture plates and allowed to adhere to the plastic for 18 h. Spent incubation media was replaced in designated wells with folate-free RPMI (FFRPMI) supplemented with 100 nM ^3H-folic acid in the absence and presence of increasing concentrations of test article or folic acid. Cells were incubated for 60 min at 37° C. and then rinsed 3 times with PBS, pH 7.4. Five hundred microliters of 1% SDS in PBS, pH 7.4, were added per well. Cell lysates were then collected and added to individual vials containing 5 mL of scintillation cocktail, and then counted for radioactivity. Negative control tubes contained only the ^3H-folic acid in FFRPMI (no competitor). Positive control tubes contained a final concentration of 1 mM folic acid, and CPMs measured in these samples (representing non-specific binding of label) were subtracted from all samples.

[2] = test system: folate receptor negative 4T1 tumors; assay: 4T-1 tumor volume assay; format: in vivo, Balb/c mice; settings: 2 μmol/kg TIW for two weeks
Protocol: Six to seven week-old mice (female Balb/c strain) were obtained from Harlan, Inc., Indianapolis, Ind. The mice were maintained on Harlan's folate-free chow for a total of three weeks prior to the onset of and during this experiment. Folate receptor-negative 4T-1 tumor cells (1×10^6 cells per animal) were inoculated in the subcutis of the right axilla. […] Tumor growth was measured using calipers at 2-day or 3-day intervals in each treatment group. Tumor volumes were calculated using the equation V=a×b^2/2, where “a” is the length of the tumor and “b” is the width expressed in millimeters.

[3] = test system: folate receptor positive human tumors; format: in vivo, nude mice; settings: 2 μmol/kg TIW, five animals
[4] = test system: FR-positive s.c. human xenograft KB tumors; assay: Inhibition of tumor growth in mice, KB; format: in vivo, nu/nu mice
Protocol: The anti-tumor activity of the compounds described herein, when administered intravenously (i.v.) to tumor-bearing animals, was evaluated in nu/nu mice bearing subcutaneous KB tumors. […] Tumor growth was measured using calipers at 2-day or 3-day intervals in each treatment group. Tumor volumes were calculated using the equation V=a×b^2/2, where “a” is the length of the tumor and “b” is the width expressed in millimeters.

[5] = test system: KB, 4T-1c12, and ID8-c115 tumor cell lines; assay: In vitro cytotoxic activity on three tumor cell lines; settings: 4T-1c12, ID8-c115, plus excess folic acid
[6] = Weight determination, nude mice; format: in vivo, nu/nu mice
Protocol: (§1) The percentage weight change of the mice was determined in mice (5 mice/group) on the indicated days post-tumor inoculation (PTI) as shown in the graph for the samples described in the related tumor volume assay.

[7] = test system: folate receptor-positive KB cells; format: cell-based, human
Protocol: The compounds described herein were evaluated using an in vitro cytotoxicity assay that predicts the ability of the drug to inhibit the growth of folate receptor-positive KB cells. The compounds were comprised of folate linked to a respective chemotherapeutic drug, as prepared according to the protocols described herein. The KB cells were exposed for up to 7 h at 37° C. to the indicated concentrations of folate-drug conjugate in the absence or presence of at least a 100-fold excess of folic acid. The cells were then rinsed once with fresh culture medium and incubated in fresh culture medium for 72 hours at 37° C. Cell viability was assessed using a ^3H-thymidine incorporation assay.
As shown in the figures herein, dose-dependent cytotoxicity was measurable, and in most cases, the IC50 values (concentration of drug conjugate required to reduce ^3H-thymidine incorporation into newly synthesized DNA by 50%) were in the low nanomolar range.

[8] = Weight determination, Balb/c mice (M109 study); format: in vivo; settings: 1 μmol/kg and 2 μmol/kg TIW (6 doses)
Protocol: as §1

FR-positive M109 tumors = assay: Inhibition of tumor growth in mice, M109; format: in vivo, Balb/c mice
Protocol: The anti-tumor activity of the compounds described herein, when administered intravenously (i.v.) to tumor-bearing animals, was evaluated in Balb/c mice bearing subcutaneous M109 tumors. […] Tumor growth was measured using calipers at 2-day or 3-day intervals in each treatment group. Tumor volumes were calculated using the equation V=a×b^2/2, where “a” is the length of the tumor and “b” is the width expressed in millimeters.

[9] = 1 μmol/kg TIW for 2 weeks plus 40 μmol/kg EC20 (rhenium complex)
[10] = 1 μmol/kg TIW for 2 weeks, without EC20

SMILES | relative binding affinity at folic acid receptors [1] | activity on 4T1 tumors [2] | complete responses, FR-positive human tumors [3] | complete responses, KB tumors ([4]; 1 μmol/kg TIW for 2 weeks (6 doses), alone) | complete responses, KB tumors, with EC20 [4, 9] | growth of KB tumors, with EC20 [4, 9] | growth of KB tumors [4, 10] | activity on established s.c. KB tumors versus controls ([4]; 1 μmol/kg TIW for two weeks, FIG. 13) | activity on large s.c. KB tumors ([4]; 2 μmol/kg TIW, 2 weeks, start at 250, 500 or 750 mm^3) | in vitro cytotoxic activity with excess folic acid [5] | weight of nu/nu (nude) mice, with EC20 [6, 9] | weight of nu/nu (nude) mice [6, 10] | weight of nude mice ([6]; 2 μmol/kg TIW, FIG. 11) | potency of Example 11 relative to Example 9 ([7]; 3H-thymidine incorporation IC50 compared) | IC50 ([7]; KB cells, without excess folic acid, read-out: IC50, 3H-thymidine incorporation) | effect of excess folic acid on activity in 3H-thymidine incorporation ([7]; with excess folic acid) | weight of Balb/c mice [8] | growth of M109 tumors (FR-positive M109 tumors; 1 μmol/kg and 2 μmol/kg TIW (6 doses)) | growth of M109 tumors, higher dose (FR-positive M109 tumors; 2 μmol/kg TIW (6 doses), also after dosing ended on day 20) | complete responses, M109 tumors (FR-positive M109 tumors; 2 μmol/kg TIW (6 doses), five animals)
CC[C@]1(O)C[C@@H]2CN(CCc3c([nH]c4ccccc34)[C@@](C(=O)OC)(c3cc4c(cc3OC)N(C)[C@H]3[C@@](O)(C(=O)NNC(=O)OCCSSC[C@H](NC(=O)[C@H](CN)NC(=O)[C@H](CC(=O)O)NC(=O)[C@H](CC(=O)O)NC(=O)[C@H](CC(=O)O)NC(=O)CC[C@H](NC(=O)c5ccc(NCc6cnc7nc(N)[nH]c(=O)c7n6)cc5)C(=O)O)C(=O)O)[C@H](O)[C@]5(CC)C=CCN6CC[C@]43[C@@H]65)C2)C1 [Example 9] | 0.24 |  |  |  |  |  |  |  |  |  |  |  |  |  |  |  |  |  |  | 
CC[C@]1(O)CC2CN(CCc3c([nH]c4ccccc34)[C@@](C(=O)OC)(c3cc4c(cc3OC)N(C)[C@H]3[C@@](O)(C(=O)NNC(=O)OCCSSC[C@H](NC(=O)[C@H](CNC(=O)CCSSCCNC5=C(C)C(=O)C6=C(C5=O)[C@@H](COC(N)=O)[C@@]5(OC)[C@H]7N[C@H]7CN65)NC(=O)[C@H](CC(=O)O)NC(=O)[C@H](CC(=O)O)NC(=O)[C@H](CC(=O)O)NC(=O)CC[C@H](NC(=O)c5ccc(NCc6cnc7nc(N)[nH]c(=O)c7n6)cc5)C(=O)O)C(=O)O)[C@H](O)[C@]5(CC)C=CCN6CC[C@]43[C@@H]65)C2)C1 (stereo partly shown) [Example 11] | 0.21 | does not have any effect on the tumors compared to controls | complete response in five out of five test animals | 5/5 | 0/5 | inhibitory effect is prevented (competed against) by the EC20 rhenium complex | inhibits the growth of solid tumors | superior to controls | inhibits the growth of large tumors and gives a complete response in test animals | reduced in the presence of excess folic acid | absence of an effect | did not affect the weight of the test animal significantly from controls; also recorded: absence of an effect | did not significantly affect the weight of the test animals; also recorded: absence of an effect | more than 10 fold | 5 nM | folic acid competes with the conjugates for binding to the folate receptor | little effect on the weight of the mice; also recorded: absence of an effect | inhibited the growth of solid tumors | strong inhibition of tumor growth | all five animals showed a complete response
Nc1nc2ncc(CNc3ccc(C(=O)N[C@@H](CCC(=O)O)C(=O)O)cc3)nc2c(=O)[nH]1 [folic acid, reference compound] | 1.0 |  |  |  |  |  |  |  |  |  |  |  |  |  |  |  |  |  |  | 
